The numbers were not newly measured in patent publication US11331275B2 (Humanwell PuraCap Pharmaceuticals (Wuhan) Co., Ltd, priority 2017, dated 2022), which cites them from elsewhere.

`C=C(c1ccc(C(=O)O)cc1)c1cc2c(cc1C)C(C)(C)CCC2(C)C` [bexarotene, 4-[1-(5,6,7,8-tetrahydro-3,5,5,8,8-pentamethyl-2-naphthyl)ethenyl] benzoic acid]: for the setting “acetonitrile”, the solubility in acetonitrile entry is “soluble”. Besides, the solubility in dimethylsulfoxide entry (dimethylsulfoxide) is on record as “soluble”. In addition, the solubility in methanol result (methanol) is reported as “slightly soluble”. The solubility in water entry (water) is “almost insoluble”.
